Results published in patent publication US9925235B2, “Tilapia piscidins for use in enhancement of wound healing” (Academia Sinica, priority 2015, dated 2018).
Peptide text beside a SMILES is read from it.

Experiments:
[1] = In vivo toxicity of TP3, intramuscular injection, blood biochemistry; details: mice, i.m. 2 mg/mouse
Protocol: To determine the toxicity of TP3, TP3 was dissolved in phosphate-buffered saline (PBS; pH 7.4) and administered as intramuscular bolus injections in the left thigh (2 mg/mouse). […] To study the effect of treatment on biochemistry, mice (n=6 in each group) were treated with PBS (control). Blood samples (0.2 ml) were collected day 1, 3 and 6 after the final injection of TP3, and used to determine the serum levels of glutamic oxaloacetic transaminase (GOT), glutamic pyruvic transaminase (GPT), blood urea nitrogen (BUN), creatinine (CRE), total glucose (GLU), and creatine phosphokinase (CPK).

MRSA [2] = details: 24 h
MRSA [3] = assay: Mouse model of MRSA sepsis, TP3; assay type: in vivo, Balb/c mice; details: for Mean ± SD count, Blood / Mean ± SD count, Liver / Mean ± SD count, Mesenteric lymph nodes / Mean ± SD count, Peritoneum / Mean ± SD count, Spleen: 48 h after injection; for survival rate: 8 days after MRSA infection, i.p. 10 min after MRSA, TP3 0.005 mg/g, vancomycin and methicillin 0.01 mg/g; for % lethality: monitored for 2 day after injection, MRSA 1 × 10^6 CFU i.p.
Protocol: (§1) Female Balb/c mice (6-8 weeks old) were injected intraperitoneally with 10^6 CFU MRSA per mouse. Ten minutes after MRSA injection, mice were injected intraperitoneally with vancomycin (0.01 mg/g mouse body weight), methicilin (0.01 mg/g mouse body weight), or TP3 (0.005 mg/g mouse body weight). In a second set of experiments, mice were given intraperitoneal injections of TP3 (0.005 mg/g mouse body weight) at 10, 60, 120, or 180 min after MRSA injection. The survival rate and status were recorded every 24 h for up to 192 h. To examine bacterial dissemination, mice were sacrificed at 48 h after injection with antibiotics or TP3, and the bacterial numbers in blood, peritoneum, spleen, liver, and mesenteric lymph nodes were recorded. Colony counts from the diluted bacterial solutions were expressed relative to those at the start of treatment. These experiments consisted of four groups, and each group contained 5 mice.

MRSA [4] = assay: Mouse wound healing model, wound closure and microbial load, TP3; assay type: in vivo, Balb/c mice
Protocol: Female Balb/c mice (6-8 weeks old) were used for wound healing experiments. All mice were housed individually to prevent fighting and further damage to the wounds, and they were provided with food and water ad libitum. Mice were maintained on a 12 h light: dark cycle at room temperature, and acclimatized to the environment for at least a week before use in experiments. All researchers wore caps, sterile gloves, gowns, and shoe covers when handling mice. Hair was removed from the back of the mice by shaving, and a full thickness wound (1 cm in diameter) was then created in the exposed region. Each wound was inoculated with 50 μl of broth mix containing 10^6 cfu (colony forming units) of S. aureus. At 5 min after inoculation, 50 μl TP3 (2 mg/ml) in a total volume of 0.1 ml were applied. Thirty minutes after treatment, wounds were covered with Tegaderm (3M, St. Paul, Minn.) to maintain uniformity, and to prevent the mice from removing the treatments. Based on initial experiments, we examined the wounds at 0, 3, 5 and 19 days post-injury, so as not to disturb the infection. Such examinations captured the transitions from inflammatory to regenerative, and regenerative to resolving phases of wound healing. Animals were subsequently euthanized by CO2 inhalation and the wounds assessed. Four individuals in each group were examined at each time point for each experiment. Each wound was measured and then removed from the animal, with unwounded skin taken from the contralateral dorsum as a control. Each biopsy was bisected with three sections being used for tensiometry and histology, and two sections for quantitative determination of microbial load. Wound healing studies were repeated in triplicate.
Tracings were taken immediately after injury. For uncontaminated wounds, wound size was determined every second day. For contaminated wounds, mice were euthanized at days 3, 5, 19 and tracings of the wound edges were made. Wound areas were determined using the Macintosh Adobe Photoshop program, Histogram Analysis. The percentage of wound contraction was calculated as follows: % Wound contraction=(A0−At)/A0×100, where A0 is the original wound area, and At is the area of wound at the time of biopsy on every two days, accordingly.
Multidrug-resistant strains of Staphylococcus aureus commonly associated with human wound infections were selected to generate a polymicrobial solution. The MRSA strain is a clinical isolate from stool obtained from Taipei City Hospital (Heping Fuyou branch). The initial inoculum was prepared by culturing aerobic bacteria in Tryptic Soy Broth (TSB) overnight at 37° C. Broths were subsequently centrifuged at 1000 rpm for 15 min, and resuspended in TSB with 15% glycerol, or chopped meat extract with 15% glycerol (for aerobic bacteria). The concentration was adjusted to 10^6 cfu/50 μl, and stored at −80° C. Prior to wound application, […]

MRSA [5] = assay: Mouse model of MRSA sepsis, TP4; assay type: in vivo, Balb/c mice; details: for Mean ± SD count, Blood / Mean ± SD count, Liver / Mean ± SD count, Mesenteric lymph nodes / Mean ± SD count, Peritoneum / Mean ± SD count, Spleen: 48 hours after the last treatment; for survival rate: 8 days after MRSA infection, i.p. 10 min after MRSA, TP4 0.005 mg/g, vancomycin and methicillin 0.01 mg/g; for % lethality: monitored for 2 day after injection, MRSA 10^6 CFU i.p.
Protocol: as §1, with “weight), methicillin” for “weight), methicilin”, “or TP4” for “or TP3”, “of TP4” for “of TP3”, “injection. Survival” for “injection. The survival”, “or TP4,” for “or TP3,”, “contained 10” for “contained 5”
Infected mice were untreated, or treated with TP4, methicillin, or vancomycin via i.p. injection. Bacterial numbers in blood, peritoneum, spleen, liver, and mesenteric lymph nodes were subsequently recorded. Colony counts from the diluted bacterial solutions are expressed relative to those at the start of treatment. Each value represents the mean value from three determinations±standard deviation (SD).

MRSA [6] = assay: Histology and IHC of wound tissue, TP3; assay type: in vivo, Balb/c mice; details: wounds
Protocol: Skin tissues were removed and fixed as previously described. In brief, the cryosections were fixed with 4% formaldehyde, and the tissue samples were stained with hematoxylin/eosin, Giemsa, or Gram stain. IHC was analyzed by three independent investigators. Images were taken using a BX-51 microscope (Olympus, Japan).

SMILES | Mean ± SD count, Blood (MRSA [3]) | Mean ± SD count, Liver (MRSA [3]) | Mean ± SD count, Mesenteric lymph nodes (MRSA [3]) | Mean ± SD count, Peritoneum (MRSA [3]) | Mean ± SD count, Spleen (MRSA [3]) | survival rate (MRSA [3]) [%] | % lethality (MRSA [3]) | Bacterial Count (MRSA [4]; day 0) | Bacterial Count (MRSA [4]; day 5) | Mean ± SD count, Blood (MRSA [5]) | Mean ± SD count, Liver (MRSA [5]) | Mean ± SD count, Mesenteric lymph nodes (MRSA [5]) | Mean ± SD count, Peritoneum (MRSA [5]) | Mean ± SD count, Spleen (MRSA [5]) | survival rate (MRSA [5]) [%] | % lethality (MRSA [5]) | other results
CC[C@H](C)[C@H](NC(=O)[C@H](CC(C)C)NC(=O)[C@H](CO)NC(=O)[C@H](Cc1c[nH]cn1)NC(=O)[C@@H](NC(=O)[C@H](Cc1c[nH]cn1)NC(=O)[C@H](CCCCN)NC(=O)CNC(=O)[C@@H](NC(=O)[C@H](CO)NC(=O)[C@H](Cc1ccccc1)NC(=O)[C@H](CC(C)C)NC(=O)CNC(=O)CNC(=O)[C@@H](NC(=O)[C@@H](NC(=O)[C@H](Cc1c[nH]cn1)NC(=O)[C@H](Cc1c[nH]cn1)NC(=O)[C@@H](NC(=O)[C@@H](N)Cc1ccccc1)[C@@H](C)CC)[C@@H](C)CC)[C@@H](C)CC)C(C)C)[C@@H](C)CC)C(=O)N[C@@H](Cc1c[nH]cn1)C(=O)NCC(=O)N[C@@H](Cc1c[nH]cn1)C(=O)O [TP3, Tilapia piscidin 3] (H-FIHHIIGGLFSVGKHIHSLIHGH-OH) |  |  |  |  |  |  |  |  |  |  |  |  |  |  |  |  | BUN ([1]; day 1): 15.2 ± 2.4^A mg/dl; CPK ([1]; day 1): 114 ± 21.9^A U/l; GLU ([1]; day 1): 258.6 ± 28.2^AB mg/dl; GOT ([1]; day 1): 122.6 ± 25.7^C U/l; GPT ([1]; day 1): 71.3 ± 8.6^C U/l; BUN ([1]; day 3): 17.4 ± 2.3^A mg/dl; CPK ([1]; day 3): 88.3 ± 5.8^B U/l; GLU ([1]; day 3): 219.8 ± 8.2^A mg/dl; GOT ([1]; day 3): 47.3 ± 5.9^A U/l; GPT ([1]; day 3): 36.2 ± 2.7^AB U/l; BUN ([1]; day 6): 20.2 ± 1.8^AB mg/dl; CPK ([1]; day 6): 129 ± 15.3^AB U/l; GLU ([1]; day 6): 290.8 ± 53.5^B mg/dl; GOT ([1]; day 6): 46 ± 8.08^A U/l; GPT ([1]; day 6): 35 ± 5.9^AB U/l; minimal inhibitory concentration (MIC) (MRSA [2]): > 3.9 µg/mL
COc1cccc(OC)c1C(=O)N[C@@H]1C(=O)N2[C@@H]1SC(C)(C)[C@@H]2C(=O)O [methicillin] | 5.8 × 10^7 ± 1.7 × 10^7B CFU/ml | 3.7 × 10^8 ± 8.1 × 10^7B CFU/ml | 6.4 × 10^7 ± 5.3 × 10^7B CFU/ml | 4.9 × 10^9 ± 2.2 × 10^9B CFU/ml | 9.5 × 10^8 ± 1.9 × 10^8B CFU/ml | 0 | 20^B % | 5.2 × 10^4 CFU/10 μl | Fatal | 4.1 × 10^7 ± 1.3 × 10^7B CFU/mL | 2.7 × 10^8 ± 3.3 × 10^8B CFU/mL | 4.1 × 10^7 ± 3 × 10^7C CFU/mL | 2.3 × 10^9 ± 2 × 10^9B CFU/mL | 1.5 × 10^8 ± 2.1 × 10^7B CFU/mL | 0 | 20^B % | 
CN[C@H](CC(C)C)C(=O)N[C@H]1C(=O)N[C@@H](CC(N)=O)C(=O)N[C@H]2C(=O)N[C@H]3C(=O)N[C@H](C(=O)N[C@H](C(=O)O)c4cc(O)cc(O)c4-c4cc3ccc4O)[C@H](O)c3ccc(c(Cl)c3)Oc3cc2cc(c3O[C@@H]2O[C@H](CO)[C@@H](O)[C@H](O)[C@H]2O[C@H]2C[C@](C)(N)[C@H](O)[C@H](C)O2)Oc2ccc(cc2Cl)[C@H]1O [vancomycin] | 8 × 10^3 ± 1.3 × 10^5B CFU/ml | 1.7 × 10^8 ± 3.8 × 10^7B CFU/ml | 2 × 10^8 ± 4.4 × 10^6A CFU/ml | 2.7 × 10^9 ± 1.5 × 10^9A CFU/ml | 1.8 × 10^3 ± 8.4 × 10^7B CFU/ml | 80 | 0^A % | 4.9 × 10^4 CFU/10 μl | 2.6 × 10^3 CFU/10 μl | 8 × 10^4 ± 1.1 × 10^4B CFU/mL | 1.3 × 10^7 ± 1.8 × 10^3B CFU/mL | 1 × 10^7 ± 4 × 10^4B CFU/mL | 1.5 × 10^6 ± 1 × 10^3A CFU/mL | 1.4 × 10^7 ± 1.1 × 10^4B CFU/mL | 80 | 10^AB % | Bacterial Count (MRSA [4]; day 3): 3 × 10^5 CFU/10 μl; Bacterial Count (MRSA [4]; day 19): 42 CFU/10 μl; overall epidermal maturation compared to the TP3 group (MRSA [6]): displayed impairment in overall epidermal maturation
